The results in this text go back to a melting point compilation (Tetko et al.; mined from patent text by program, amines drawn as free bases though some values may be those of a salt).

The term melting point denotes the temperature, or range, at which the solid turns liquid. Compound `O=C(C=Cc1ccc(Cl)cc1)C1CC1` gave a melting point of 61 °C.
With `O=C1NC(=O)C2(C(=O)N(Cc3ccc(Cl)c(Cl)c3)c3ccccc32)N1C(=O)c1ccccc1` (stereo not drawn), the melting point was in the range of 251 to 253 °C.
`Cc1nn2c(c1C(N)=O)NCCC2`: the melting point was 234 to 236 °C.
Under `O=C1Cc2cc(CCN3CCC(c4noc5cc(F)ccc45)CC3)ccc2N1` stands 199 to 204 °C; under `O=C(c1cccc2cc[nH]c12)N1CCN(c2ccccc2)CC1`, 217 to 219 °C; under `N#Cc1c(O)c2sccc2[nH]c1=O`, greater than 300 °C.
Take `CC(=O)NC(C#N)NC(=O)c1cc(C)cc(C)c1` (stereo not drawn): the melting point is 195 to 197 °C.
Take `CCCCNC(=O)Oc1ccc(C(O)(CC)c2cccc(C(F)(F)F)c2)cc1` (stereo not drawn): the melting point lay within 99 to 100 °C.
Compound `CCc1nc2c(N)nc3ccc(O)cc3c2n1C` showed a melting point greater than 240 °C.
Under `CC(=O)NN1CCN(C(=O)Cn2c(=O)sc3ccc(Cl)cc32)CC1` stands 284 to 285 °C.
The result for `CC(=O)OCC(=O)C1(O)C(C)CC2C3CCC4=CC(=O)CCC4(C)C3=CCC21C` (stereo not drawn) reads 197 to 201 °C; that for `CCCCSc1cc(SCCCC)c2ccc3c(SCCCC)cc(SCCCC)c4ccc1c2c43`, 91 to 92 °C.
Compound `COc1c(C(=O)O)cccc1[N+](=O)[O-]` yielded a melting point of 224 to 226 °C.
In turn, `CC(=O)Nc1ccc(C=NNC(N)=S)cc1Cl` returned a melting point of 235 to 238 °C.
Under `NS(=O)(=O)c1ccc(-c2cn(-c3nc(-c4cccc(Cl)c4)cc(C(F)(F)F)n3)cn2)s1` stands 280 °C; under `CNC(=S)n1ncnc1N`, 184 to 185 °C; under `Cc1cn(-c2cc(NC(=O)OC(C)(C)C)cc(C(F)(F)F)c2)cn1`, 186 to 188 °C.
Under `COC1=CC(OC)OC(C)C1=O` (stereo not drawn) stands 73 to 74.5 °C; under `O=C1NC(=O)C(Cc2ccc3c(c2)CN(c2ccccn2)CCO3)S1` (stereo not drawn), 180 to 181 °C; under `OCc1ccc(OCc2ccccc2)c2ncccc12`, 192 to 194 °C.
Compound `Cc1sc2ncc(C(O)C=Cc3ccccc3)n2c1C` (stereo not drawn) yielded a melting point of 149 to 151 °C.
The compound `COC(=O)c1cc(F)c(C)c(N)c1Cl` showed a melting point of 51 to 52 °C.
Compound `O=C(Nc1cccc2cc(Br)cnc12)C1c2ccccc2-c2ccccc21` had a melting point of 196 to 198 °C.
Under `COCCn1cc(C(=O)C(F)(F)F)c2c(Cl)cccc21` stands 57 to 59 °C.
Under `CC1(C)Oc2c(c(=O)n(Cc3ccccc3)c3ccccc23)[C@@H](NC(=O)CCCCl)[C@@H]1O` (relative stereo) stands 176 to 178 °C; under `COc1ccc(C(=O)Nc2ccc(Cl)c(Cl)c2)cc1NCc1cccnc1`, 145 to 147 °C; under `COc1ccc(CNC(=S)N2C(=O)CC(c3ccc(OC)c(OC4CCCC4)c3)N2C)cc1` (stereo not drawn), 52 to 55 °C.
Under `CC(C)c1nc(-c2ccccc2)nc(-c2ccc(F)cc2)c1C=CI` stands 119 to 122 °C; under `CC(C)n1nc(-c2c(-c3ccccc3)nn3ccc(N4CCN(Cc5ccccc5)CC4)cc23)ccc1=O`, 136 to 138 °C.
The compound `CS(=O)(=O)c1ccc(-c2cc(C(=O)CCCO)nn2-c2ccccc2)cc1` came in with a melting point of 143 to 145 °C.
The result for `CCOc1nc2cccc(C(=O)OCOC(=O)C(C)(C)C)c2n1Cc1ccc(-c2ccccc2-c2nnn[nH]2)cc1` reads 104 to 106 °C.
The compound `CCc1nc(C)cn1C(=O)c1c(Cl)cccc1[N+](=O)[O-]` displayed a melting point of 116 to 118 °C.
Compound `COCCCCCCCCCCCc1nnn[nH]1` yielded a melting point of 66.3 to 68.3 °C.
The result for `COc1ccc(S(=O)(=O)C(C)(CCCCN2C(=O)c3ccccc3C2=O)C(=O)NO)cc1` (stereo not drawn) reads 146 to 148 °C; that for `Cc1nc(Cn2c(=O)sc3cc(F)c(N4C(=O)C5=C(CCCC5)C4=O)cc32)no1`, 198 to 199 °C; that for `COc1ccc(Nc2ncc3ccc(=O)n(C(C)C)c3n2)cc1`, 170 °C.
The result for `Cc1ccc(-n2cccc2-c2ccc(S(C)(=O)=O)cc2)cc1` reads 112 to 114 °C; that for `CCOC(=O)CCP(Br)(c1ccccc1)(c1ccccc1)c1ccccc1`, 150 °C.
Under `COc1ccc(C=C2C(=O)C3(C)CCC2C3(C)C)cc1OC` (stereo not drawn) stands 107 °C.
In turn, `O=C(O)COc1ccc2c(c1)OCO2` showed a melting point of 149 to 151 °C.
The result for `COC(=O)c1sc(C(F)(F)F)cc1OCc1ccccc1` reads 52 to 53.5 °C.
`COc1nc2ccccc2nc1NC(=O)N1CCN(c2ccccc2C(C)C)CC1` yielded a melting point of 147 to 149 °C.
Compound `Cn1ccnc1S(=O)CC(=O)C12CC3CC(CC(C3)C1)C2` (stereo not drawn) showed a melting point of 86 to 89 °C.
Turning to `COc1ccc2c(n1)C(=O)c1nccc3c1c-2nc1ccccc13`, the melting point is greater than 260 °C.
Turning to `O=CNCC1c2ccccc2C=Cc2ccccc21`, the melting point is 115 to 118 °C.
The compound `Cc1ccc(-c2nn(-c3cccc4ccccc34)c(N)c2C(N)=O)cc1` came in with a melting point of 195 °C.
The result for `CC1Nc2ccc(NC(=O)c3ccc(C(=NN)C(=O)OCc4ccccc4)cc3)cc2CN(CCc2ccccc2)C1=O` (stereo not drawn) reads 120 °C.
On to `Clc1ccc(Nc2nc3ccccc3c3[nH]c(C4CCC4)nc23)cc1Cl`, for which the melting point was 131 to 134 °C.
The result for `COCNC(=O)c1c(-c2ccc(Cl)cc2)nsc1-c1ccccc1` reads 119 to 120 °C; that for `CC(ON=c1c2nccc3cccc(c32)n2cccc12)C(=O)O` (stereo not drawn), 225 °C.
Consider `CCOC(=O)c1cc(NC(=O)C(CS)Cc2ccc(Cl)cc2)c[nH]1` (stereo not drawn), for which the melting point was in the range of 140 to 143 °C.
`O=C(CCC1CC1)N1C(=O)OC[C@@H]1Cc1ccccc1` had a melting point of 42 to 43 °C.
As for `CC(=O)Oc1cc(OCC(O)c2ccc3c(c2)C(C)(C)CCC3(C)C)ccc1C(=O)O` (stereo not drawn), the melting point fell in the range of 119 to 120 °C.
In the case of `COc1ccc(C[C@@H](NC(=O)c2ccc(F)c3ccccc23)[C@@H](O)c2ccc(F)cc2)cc1` (racemic), the melting point lay in the range of 210 to 211 °C.
The compound `Cc1cc2c(c(C)c1Br)C(c1ccc(C(C)C)cc1)CS2` (stereo not drawn) gave a melting point of 98 to 100 °C.
Under `CC(=O)Nc1nc(CCc2ccc(NC(=O)OC(C)(C)C)cc2)c(C(=O)NCc2ccccc2)s1` stands 184 to 185 °C; under `CCCCCN(CCCCC)C(=O)C(CCC(=O)O)CS(=O)(=O)c1ccc(Cl)c(Cl)c1` (stereo not drawn), 76 to 79 °C.
Under `O=C(Nc1cccnc1Cl)c1ccco1` stands 102 °C; under `Cc1nc2c(-c3cccc(N4CCN(C)CC4)c3)cnn2c(N)c1-c1ccc(F)c(F)c1`, 216 to 219 °C; under `Cc1ccccc1C(=O)N[C@@H](CC(C)C)C(=O)N[C@@H](C(C)C)[C@@H](O)c1c(-c2ccccc2)c1=O`, 101 to 105 °C.
Compound `Cc1noc(NC(=O)N2CCN(c3nccc(-c4cc(F)ccc4F)n3)CC2)c1C` gave a melting point of 218 to 219 °C.
Regarding `N#CCNSc1ccc(Cl)cc1`, the melting point is 74 to 76 °C.
Compound `Cc1cc(Br)c(S(N)(=O)=O)cc1C(=O)O` came in with a melting point of 237 °C.
`O=C(Nc1ccc(Oc2ccnc(N3CCCC(O)C3)n2)c2ccccc12)c1cc(F)cc(N2CCOCC2)c1` (stereo not drawn): the melting point lay within 180 to 181 °C.
Under `Cc1c(N2CCc3ccccc3C2)c(F)cn2c(=O)c(C(=O)O)cc(C3CC3)c12` stands 214 to 215 °C.
Under `CS(=O)(=O)CCCCC(c1cc(Cl)ccc1F)S(=O)(=O)c1ccc(Cl)cc1` (stereo not drawn) stands 116 to 117 °C; under `CN(C)C(=O)CON(Cc1ccc(F)cc1)C(=O)C1=C(O)C(=O)N(C)C1`, 147 to 149 °C; under `O=C(N[C@H]1CC[C@H](O)CC1)c1cc(F)cnc1Cl`, 197 to 200 °C.
Take `CCCc1nc2c(C(F)(F)F)cccc2c(O)c1C(=O)OCC`: the melting point came out at 98 °C.
Under `CCNC(=O)Cc1ccc2ccn(C3CCN(CCc4ccc(F)cc4)CC3)c2c1` stands 160 °C; under `Cc1c(F)c(F)c(C(=O)NC(C(C)C)C(C)C)c(F)c1F`, 184 to 187 °C.
Under `O=C1C(=CO)C(c2ccccc2[N+](=O)[O-])=NN1c1ccc(Cl)cc1` stands 155 to 157 °C; under `CN(C)c1cccc2c(S(=O)(=O)Nc3ccc(I)nn3)cccc12`, 176 to 178 °C; under `CC(=O)C1C(C(=O)c2ccc(Cl)cc2)CC2C3CCC4=CC(=O)CCC4(C)C3(F)C(O)CC21C` (stereo not drawn), 280 to 281 °C.
Under `CC(C)(O)C1CCN(Cc2ccc(C#CC(=O)Nc3ccc(-c4ccc(Cl)cc4)cc3)cc2)CC1` stands 194 to 195 °C; under `Cc1oc(-c2ccccc2)nc1COc1ccc(CON=C(CCC(N)=O)c2ccccc2)cc1`, 110 to 112 °C; under `CC(Nc1nc(Oc2cccc3sc(N)nc23)cc(-c2ccc(C(F)(F)F)cc2)n1)c1ccc(F)cc1` (stereo not drawn), 231 °C.
Regarding `N#CC=CC=CC(=O)C(F)(F)F`, the melting point fell in the range of 123 to 126 °C.
`CCNC(=O)CNc1c(C#N)cnn1-c1ccc(C(F)(F)F)cc1Cl` returned a melting point of 144 to 145 °C.
`CC(C)(C)OC(=O)CON=C(C(=O)O)c1cccs1` gave a melting point of 88.3 to 91.3 °C.
The result for `CN1CCN(c2ccc(S(=O)(=O)Oc3c(Cl)cc(Cl)cc3Cl)cc2)C1=O` reads 185 to 187 °C; that for `CCC(CC)(CO)Nc1nc(-c2ccc(C#N)cc2)cs1`, 118 to 120 °C.
The result for `Cc1nc2scc(-c3ccccc3)n2c(=O)c1CCN1CCC(c2noc3cc(F)ccc23)CC1` reads 76 to 91 °C; that for `CN1C(=S)C(c2ccc(OC(F)(F)F)cc2)(c2cccc(-c3cccnc3F)c2)N=C1N` (stereo not drawn), 89 to 99 °C.
The result for `COc1ccc(CCc2nc(C(F)(F)F)c[nH]2)cc1` reads 146 to 148 °C; that for `Clc1ccc2c(NCCN3CCCCC3)ccnc2c1`, 148 to 151 °C; that for `CCCSc1ncc(CO)n1Cc1ccc(-c2ccccc2C(=O)O)cc1`, 194 to 195 °C.
On to `CCCCCC(c1ccc(OC)cc1OC)C(C(N)=O)c1cc(C(=O)O)ccc1C(C)(C)C` (stereo not drawn), for which the melting point lay in the range of 153 to 154 °C.
